Data taken from patent US11912789B2, “Peptide activating agent” (Interk Peptide Therapeutics Limited, priority 2018, dated 2024).

Tested on: PBMCs
Assay: Foxp3+ Treg proportion in anti-CD3 stimulated PBMCs
Type: cell-based, human
Details: in the absence of RSKAKNPLYR-(2Adod)4-NH2; FIG. 9
Description: Shown is the percentage inhibition of Regulatory T cells (Tregs:Foxp3+) within human PBMCs in the presence of RSKAKNPLYR-(2Adod)4-NH2 (cells gated for CD4+/CD25+/CD127101. Anti-CD3 stimulated PBMCs were cultured together with RSKAKNPLYR-(2Adod)4-NH2 over a 5-concentration range plus vehicle control (0-1.25 μM) for 48 hrs. Treg populations were determined by measuring Foxp3+ proportion of cells within CD4+CD25+CD127^low population. Data were normalised due to donor variation. Data presented indicates the fold change in Foxp3+ Treg proportions in response to peptide treatment, +/−SEM, n=4. Data were analysed by RM two-way ANOVA with Dunnett's post-test comparing each peptide concentration with […], **p<0.01, ****p<0.0001. Dotted line indicates vehicle control for normalisation.
Anti-CD3 stimulated PBMCs were cultured together with RSKAKNPLYR-(2Adod)4-NH2, over a 5-concentration range plus vehicle control (0-1.25 μM) in combination with anti-PD-1 (Pembrolizumab) or isotype (hlgG4) for 48 hrs after which CD4+ and CD8+ T cells were assessed by flow cytometry. Treg populations were determined by measuring Foxp3+ proportion of cells within CD4+CD25+CD127^low populations. […] Data were analysed by RM two-way ANOVA with Sidak's post-test comparing peptide in combination with anti-PD-1 vs combination with hlgG4 at each dose, *p<0.05, **p<0.01. […]

Pembrolizumab [anti-PD-1 antibodies]
proportion of Treg cells within PBMCs, anti-PD-1 versus isotype control: same proportion of Treg cells
